Data as given in patent publication US20240226059A1, “COMPOSITION FOR INHIBITING ANGIOGENESIS AND ENHANCING THERAPEUTIC EFFECT OF ANTICANCER DRUGS IN CANCER PATIENT” (KANT SCIENCE INC., priority 2020, published 2024).
“Also recorded” adds a separate entry of the source.

Experiments:
Format in all cases: cell-based
Breast cancer cells [1] = experiment: Intracellular acidity (pH) of breast cancer cells at normal or low glucose; details: low-carbohydrate state (glucose 5 nM), in combination with paclitaxel (PTX); FIG. 1, FIG. 2
Method: Breast cancer cells were cultured at a normal glucose (GLU) concentration of […] or a low concentration of […], and intracellular acidity was confirmed with or without the treatment of paclitaxel (PTX), which is an anticancer drug, and cariporide (CAR), which is a drug that regulates intracellular acidity.

colorectal cancer cells = experiment: Anticancer drug resistance (GR50 ratio) of colorectal cancer cells at high or low glucose; details: low glucose (5 nM), in combination with irinotecan; FIG. 4
Method: Furthermore, colorectal cancer cells were cultured at a high glucose concentration ([…]) or a low glucose concentration ([…]), and it was confirmed by a growth rate 50 ratio (GR50 ratio) while treating irinotecan, which is an anticancer drug, and cariporide in combination whether the cancer cells had anticancer drug resistance.

Breast cancer cells [2] = experiment: Cell viability of breast cancer cells at normal or low glucose; details: low-carbohydrate state (glucose 5 nM), in combination with paclitaxel (PTX); FIG. 3
Method: Breast cancer cells were cultured at a normal glucose (GLU) concentration of […] or a low concentration of […], and cell viability was confirmed with and without the treatment of paclitaxel (PTX), which is an anticancer drug, and cariporide (CAR) or curcumin (CUR).

Row | Compound | intracellular acidity (Breast cancer cells [1]) | anticancer drug resistance (growth rate 50 ratio, GR50 ratio) (colorectal cancer cells) | cell viability (colorectal cancer cells) | anticancer effect (cell viability) (Breast cancer cells [2])
1 | CC(C)c1ccc(C(=O)NC(=N)N)cc1S(C)(=O)=O [cariporide] | maintained normal pH; also recorded: closest to normal | overcome anticancer drug resistance | significantly reduce cell viability | best anticancer effect
2 | COc1cc(/C=C/C(=O)CC(=O)/C=C/c2ccc(O)c(OC)c2)ccc1O [curcumin] | same effect as cariporide; also recorded: closest to normal | – | – | best anticancer effect
